Here are results for eight compounds from patent US7786083B2, “Metastin derivatives and use thereof” (Takeda Pharmaceutical Company Limited, priority 2006, dated 2010).

*1 amine or outer side, *2 acyl side, *3 side chain or, on linkers, in order; H or OH if unused. Where a SMILES comes first, the peptide text is derived from it. Where no end group is shown, it is not given here. [ ]: non-standard residue; d: D form. Pro(trans-4-F) = O=C(O)[C@@H]1C[C@@H](F)CN1; 2Nal = N[C@@H](Cc1ccc2ccccc2c1)C(=O)O; X1 = CC(C)C[C@H](CCCN[*:1])C(=O)[*:2]; Arg(Me) = CNC(=N)NCCC[C@H](N)C(=O)O; Dap(CONH2) = NC(=O)NC[C@H](N)C(=O)O; Ala(cPr) = N[C@@H](CC1CC1)C(=O)O; Hyp = O=C(O)[C@@H]1C[C@@H](O)CN1; Cha = N[C@@H](CC1CCCCC1)C(=O)O

The assay has as its system metastin receptors. Put plainly: Measurement of agonist activity by assaying changes in intracellular calcium ion level (FLIPR, Fluo-4 NW). It is filed as cell-based, human. The following applies: specific activity of the EC50 of a test compound based on the EC50 of Metastin (45-54), metastin receptor expression CHO cells. Summed up: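 CHO/dhfr⁻ cells stably expressing human or rat metastin receptor, seeded 3×10^4/well for 24 h, loaded with Fluo-4 NW 30 min at 37 °C in HBSS with 0.1% BSA, 20 mM HEPES pH 7.4 and 1 mM probenecid. Compound-stimulated intracellular calcium change read on FLIPR.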
In general terms: Calcium flux is commonly read through the fluorescence of an indicator in the cells.

With `CNC(=N)NCCC[C@H](NC(=O)[C@H](CC1CC1)NC(=O)CNC(=O)[C@H](CC1CCCCC1)NC(=O)[C@@H](NC(=O)[C@H](CNC(N)=O)NC(=O)[C@@H]1C[C@@H](O)CN1C(=O)[C@@H](Cc1ccc(O)cc1)NC(C)=O)[C@@H](C)O)C(=O)N[C@@H](Cc1c[nH]c2ccccc12)C(N)=O` [Compound No. 953, des(1)-Ac-[D-Tyr2,Hyp3,Alb4,Thr5,Cha6,Ala(cPr)8,Arg(Me)9,Trp10]MS10] (Ac-[dY][Hyp][Dap(CONH2)]T[Cha]G[Ala(cPr)][Arg(Me)]W-NH2), the “Specific Activity” value is recorded as 0.5. In the case of `CC(=O)N[C@H](Cc1ccc(O)cc1)C(=O)N1C[C@H](O)C[C@H]1C(=O)N[C@@H](CC(N)=O)C(=O)N[C@H](C(=O)N[C@@H](CC1CCCCC1)C(=O)NCCC[C@@H](CC(C)C)C(=O)N[C@@H](CCCNC(=N)N)C(=O)N[C@@H](Cc1c[nH]c2ccccc12)C(N)=O)[C@@H](C)O` [Compound No. 956, des(1)-Ac-[D-Tyr2,Hyp3,Thr5,Cha6,Gly7Ψ(CH2CH2)Leu8,Trp10]MS10] (Ac-[dY][Hyp]NT[Cha][X1]RW-NH2), the “Specific Activity” value is reported as 1.1.

Turning to `CNC(=N)NCCC[C@H](NC(=O)[C@@H](CCCNC(=O)[C@H](CC1CCCCC1)NC(=O)[C@@H](NC(=O)[C@H](CNC(N)=O)NC(=O)[C@@H]1C[C@@H](O)CN1C(=O)[C@@H](Cc1ccc(O)cc1)NC(C)=O)[C@@H](C)O)CC(C)C)C(=O)N[C@@H](Cc1c[nH]c2ccccc12)C(N)=O` [Compound No. 957, des(1)-Ac-[D-Tyr2,Hyp3,Alb4,Thr5,Cha6,Gly7Ψ(CH2CH2)Leu8,Arg(Me)9,Trp10]MS10] (Ac-[dY][Hyp][Dap(CONH2)]T[Cha][X1][Arg(Me)]W-NH2), the “Specific Activity” value is listed as 1.1. As for `CNC(=N)NCCC[C@H](NC(=O)[C@H](CC(C)C)NC(=O)NCC[C@H](Cc1ccccc1)NC(=O)[C@@H](NC(=O)[C@H](CC(N)=O)NC(=O)[C@@H]1C[C@@H](O)CN1C(=O)[C@@H](Cc1ccc(O)cc1)NC(C)=O)[C@@H](C)O)C(=O)N[C@@H](Cc1c[nH]c2ccccc12)C(N)=O` [Compound No. 968, des(1)-Ac-[D-Tyr2,Hyp3,Thr5,Phe6Ψ(CH2CH2)AzaGly7,Arg(Me)9,Trp10)MS10], the “Specific Activity” value was found to be 0.6. On to “des(1)-Ac-[D-Tyr2,Hyp3,Alb4,Ala5,Cha6,Ala(cPr)8,Arg(Me)9,Trp10]MS10 (Ac-[dY][Hyp][Dap(CONH2)]A[Cha]G[Ala(cPr)][Arg(Me)]W-NH2; SMILES CNC(=N)NCCC[C@H](NC(=O)[C@H](CC1CC1)NC(=O)CNC(=O)[C@H](CC1CCCCC1)NC(=O)[C@H](C)NC(=O)[C@H](CNC(N)=O)NC(=O)[C@@H]1C[C@@H](O)CN1C(=O)[C@@H](Cc1ccc(O)cc1)NC(C)=O)C(=O)N[C@@H](Cc1c[nH]c2ccccc12)C(N)=O) [Compound No. 947]”, for which the “Specific Activity” value worked out at 0.5.

On to “des(1)-Ac-[D-Tyr2,Hyp3,Thr5,Gly7Ψ(CH2NH)Leu8,Arg(Me)9,Trp10]MS10 (Ac-[dY][Hyp]NTFGL[Arg(Me)]W-NH2; also: -CONH- between Gly and Leu replaced by -CH2NH-) [Compound No. 854]”, for which the “Specific Activity” value came to 2.9. Take “des(1)-Ac-[D-Tyr2,Hyp3,Thr5,Nal(2)6,Arg(Me)9,Trp10]MS10 (Ac-[dY][Hyp]NT[2Nal]GL[Arg(Me)]W; ends and bridges not checked) [Compound No. 919]”: the “Specific Activity” value turned out to be 1.0. On to “des(1)-Ac-[D-Tyr2,Pro(4F)3,Thr5,Cha6,Ala(cPr)8,Arg(Me)9,Trp10]MS10 (Ac-[dY][Pro(trans-4-F)]NT[Cha]G[Ala(cPr)][Arg(Me)]W-NH2; SMILES CNC(=N)NCCC[C@H](NC(=O)[C@H](CC1CC1)NC(=O)CNC(=O)[C@H](CC1CCCCC1)NC(=O)[C@@H](NC(=O)[C@H](CC(N)=O)NC(=O)[C@@H]1C[C@@H](F)CN1C(=O)[C@@H](Cc1ccc(O)cc1)NC(C)=O)[C@@H](C)O)C(=O)N[C@@H](Cc1c[nH]c2ccccc12)C(N)=O) [Compound No. 959]”, for which the “Specific Activity” value stood at 0.4.
